Experimental data taken from patent US6348570B1, “Chromophore containing compounds and their use in determining interleukin-1β convertase activity” (Merck & Co., Inc., priority 1991, dated 2002).
One block for each molecule: values may come before it. Starred links: 1 amine or outer side, 2 acyl side, 3 side chain; linkers in the order of their positions; H or OH if unused. Non-standard residues stand in square brackets, D forms with d. Residues, ends and D or L forms follow the SMILES beside them. No end group written: not given here. *: point of attachment. 3‑amino‑4‑oxobutanoic acid = aspartic acid with its alpha-carboxyl as an aldehyde, O=C[C@H](CC(=O)[*:3])N[*:1]; AMC = Cc1cc(=O)oc2cc(N*)ccc12

Assays:
[1] = molecular target: T1, Interleukin-1β convertase (ICE), DEAE-purified THP-1 cell lysate (Homo sapiens, UniProt P29466); test: Coupled fluorometric ICE assay with leucine aminopeptidase (LAPM); format: biochemical; set-up: Activity of DEAE-purified THP-1 cell lysate; endogenous in cells; host or cells: THP-1 cells; cytosolic extract fractionated on a DEAE-5PW HPLC column; conditions: 25° C.
T1 sequence (P29466 120-297 limits assumed): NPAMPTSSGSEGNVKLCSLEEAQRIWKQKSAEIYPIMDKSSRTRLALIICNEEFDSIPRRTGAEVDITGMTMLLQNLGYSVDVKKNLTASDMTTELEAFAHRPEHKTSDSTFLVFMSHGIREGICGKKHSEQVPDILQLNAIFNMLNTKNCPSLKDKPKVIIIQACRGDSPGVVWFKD
T1 sequence (P29466 317-404 limits assumed): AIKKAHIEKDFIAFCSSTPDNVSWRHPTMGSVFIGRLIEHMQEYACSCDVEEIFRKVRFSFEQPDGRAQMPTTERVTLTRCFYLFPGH
Protocol: Coupled Assay: Interleukin 1β activity of Activity of DEAE-purified THP-1 cell lysate.
At 25° C., 5 μl of substrate 5 μl of LAPM, 5 μl of ICE were added to […] of buffer.
Reaction is monitored continuously in a Gilford Fluoro-IV Spectrofluorometer. excitation wavelength=380 nm emission wavelength=460 nm 1 uM AMC=100% relative fluoroescence

[2] = molecular target: T1, Interleukin-1β convertase (ICE), DEAE-purified THP-1 cell lysate; format: biochemical; set-up: Activity of DEAE-purified THP-1 cell lysate; endogenous in cells; host or cells: THP-1 cells; cytosolic extract fractionated on a DEAE-5PW HPLC column; conditions: pH 7.5
Protocol: [table] At 25° C., 5 μl of substrate 5 μl of enzyme and 5 μl of sample were added to 485 μl of Buffer as defined above. Liberation of AMC was monitored using a Gilford Fluoro IV Spectrofluorometer using an excitation wavelength of 380 nm and an emmission wavelength of 460 nm. 1 μM AMC=100% relative fluorescence.

[3] = molecular target: T2, Interleukin-1β convertase (ICE) (UniProt P29466 120-297; P29466 317-404, limits assumed); test: cell-based or functional assay
T2 sequence (looked up) 1: T1 sequence (P29466 120-297 limits assumed)
T2 sequence (looked up) 2: T1 sequence (P29466 317-404 limits assumed)

Molecule: CC(=O)N[C@@H](Cc1ccc(O)cc1)C(=O)N[C@H](C(=O)N[C@@H](C)C(=O)N[C@@H](CC(=O)O)C(=O)NCC(=O)Nc1ccc2c(C)cc(=O)oc2c1)C(C)C [Ac-Tyr-Val-Ala-Asp-Gly-AMC, N-(N-Acetyl-tyrosinyl-valinyl-alaninyl-aspartyl-glycinyl)-7-amino-4-methylcoumarin] (Ac-YVADG-{AMC})
- velocity of the steady state reaction ([1]; 5 μl substrate, 5 μl LAPM, 5 μl ICE, pH 7.5): 0.05 uM AMC/min
- rate constant that describes the approach to steady state (lag phase) ([1]; determined by amount of coupling enzyme LAPM (5 μl of 12.5 units/ml)): 0.44 ± 0.01 min⁻¹

- rate constant for inhibition ([2]; 5 μl of 2 μM sample in 500 μl, 25° C.): 0.25 min⁻¹
- half-life for the slow onset of inhibition [2]: 2.7 min
- type of inhibition ([2]; substrate Ac-Tyr-Val-Ala-Asp-AMC, 25° C.): slow, tight-binding inhibitor
Molecule: CC(=O)N[C@@H](Cc1ccc(O)cc1)C(=O)N[C@H](C(=O)N[C@@H](C)C(=O)NC(C=O)CC(=O)O)C(C)C (stereo partly drawn) [Compound Z, N-(N-acetyl-tyrosinyl-valinyl-alaninyl)-3-amino-4-oxo butanoic acid]

- half-life for the slow onset of inhibition [3]: 2.7 min
Molecule: Ac-YVA[3‑amino‑4‑oxobutanoic acid] [compound Z (i.e. N-(N-acetyl-tyrosinyl-valinyl-alaninyl)-3-amino-4-oxo butanoic acid)]
